Consider 5 molecules from US20250263396A1, “CRYSTALLINE FORMS OF 3-(5-(2-HYDROXY-2- METHYLPROPOXY)-6-METHYPYRAZIN-2-YL)-1H-INDOLE-7-CARBONITRILE” (NIDO BIOSCIENCES, INC., priority 2024, published 2025).

SMILES strings stand for the structures. Entries after “also recorded” stand apart in the source; their conditions may differ.

Data set [1] can be described thus: Competitive equilibration experiments. The conditions noted are these: 2-MeTHF.
Experimental: Relative stability of the anhydrate Forms A, C, H and J was investigated with competitive equilibration experiments.
Relative stability of the anhydrates Forms C, K and L was investigated with competitive equilibration experiments.
Relative stability of the anhydrates Form C and Form P was systematically investigated with competitive equilibration experiments.
About 5 mg of Form C and about 5 mg of Form P were added to 0.25 mL of saturated solutions of selected solvents. Obtained suspensions were stirred at 25° C., 50° C. and 70° C. for 4 days, respectively. Solid parts (wet cakes) were isolated by centrifugation filtration and investigated by XRPD.
About 10 mg of Form C and about 10 mg of Form P were added to 0.5 mL saturated solutions of selected solvents. Obtained suspensions were stirred at 80/C and 90 C, respectively. Solid parts (wet cakes) were be isolated by centrifugation filtration and investigated by XRPD.
About 3 mg of the Form P and 3 mg of the mixture of Form P and Form J were added to 0.2 mL of saturated solutions of selected solvents. Obtained suspensions were stirred at 25° C., 50° C. and 70° C. for 4 days, respectively. Solid parts (wet cakes) were isolated by centrifugation filtration and investigated by XRPD.
About 3 mg of Form P and 3 mg of the physical mixture of Form P and Form R were added to 0.2 mL of saturated solutions of 2-MeTHF. Obtained suspensions were stirred at 25° C., 50° C. and 70° C., respectively. Solid parts (wet cakes) were isolated by centrifugation filtration and investigated by XRPD.
About 1.5 mg of Form P, 1.5 mg of Form X and 1.5 mg Form Y were added to 0.15 mL saturated solution of 2-MeTHF. Obtained suspensions were stirred at 25° C., 50° C. and 70° C., respectively. Solid parts (wet cake) were isolated by centrifugation filtration and investigated by XRPD.
Data set [2] relates to LNCaP cells expressing ARR2PB-FireflyLuc and CMV-RenillaLuc. Nature of the data set: LNCaP ARR2PB-FireflyLuc reporter assay. The conditions noted are these: Homo sapiens, +/−0.5 nM DHT, 48 h at 37° C. The data set is classed as cell-based. As for the experimental part: LNCaP cells expressing ARR2PB-FireflyLuc and CMV-RenillaLuc were treated with indicated concentrations of the test compound, enzalutamide (negative control), or DHT (positive control)+/−0.5 nM DHT for 48 h at 37° C. […] signals were read with the ImageXpress Micro Confocal System. Remaining activity (antagonist mode) was calculated as % Remaining Activity=100×[(Readsample−LCave)/(HCave−LCave)] where HC is cells treated with 0.5 nM DHT only and LC is cells treated with 10 uM enzalutamide+0.5 nM DHT. Activation (agonist mode) was calculated as % Activation=100×[(ReadSample−LCave)/(HCave−LCave)] where HC is cells treated with 1 uM DHT and LC is cells treated with DMSO. Dose response curves and IC50 values were calculated using non-linear regression analysis in XLfit.
On the technique in general: In a reporter assay the amount or activity of a reporter protein is the signal.

The nature of data set [3]: Exposure to humidity or ambient condition. It counts as physicochemical.
Data set [4] in a line: Equilibration with solvents. It counts as physicochemical. The protocol:
Obtained suspensions were filtered through a 0.45 μm nylon membrane filter by centrifugation at 14,000 rpm. Solid parts (wet cakes) were investigated by XRPD. For samples with different XRPD patterns, additional analysis including DSC, TGA, ^1H-NMR were performed.
(§1) Obtained suspensions were filtered through a 0.45 μm nylon membrane filter by centrifugation at 14,000 rpm.
as §1

Data set [5] in a line: Dry grinding simulation experiments. The data set is classed as physicochemical. Conditions: ground manually with mortar and pestle, 5 min. The protocol:
About 10 mg of Form P was ground manually with a mortar and a pestle for 1, 3 and 5 minutes.
About 10 mg of Form C was ground manually with a mortar and a pestle for 5 minutes.

Data set [6] in a line: Competitive water activity experiments. The conditions noted are these: whole range of water activity (0≤a.w.≤1).
Data set [7] can be described thus: Wet granulation simulation experiments. It counts as physicochemical. As for the experimental part: Water or ethanol was added drop wise to about 10 mg of Form P until the sample is wetted sufficiently. Wet sample was ground gently with in a mortar and a pestle. Post granulation sample was dried under ambient condition for 10 min.
Water or ethanol was added drop wise to about 10 mg of Form C until the sample is wetted sufficiently. Wet sample was ground gently with in a mortar and a pestle. Post granulation sample was dried under ambient condition for 5 min.

Data set [8] in a line: Form conversion kinetics from Form C to Form P. It counts as physicochemical. As for the experimental part: To investigate form conversion kinetics from Form C to Form P, equilibration experiments with Form C in pH 1.2 HCl buffer, 2-MeTHF, heptane and water were conducted. In 2-MeTHF, Form C converted to Form P within 2 h at 25° C. In pH 1.2 HCl buffer, Form C converted to Form P after 31 h at 37° C. In heptane, Form C converted to Form P completely after 1 week at 25° C. In water, Form C converted to Form P completely after 4 days at 25° C.

A short description of data set [9]: Form change on heating, dehydration or desolvation (TGA, DSC, variable temperature XRPD). Conditions: DSC thermogram and VT-XRPD. It counts as physicochemical. As for the experimental part:
Relative stability of the anhydrates Form R and Form P was investigated by variable temperature XRPD and competitive equilibration experiments.
Relative stability of the anhydrates Form B, Form X, Form Y and Form C was investigated by variable temperature XRPD. Form B converted to Form X, Form Y and Form C after heating to 150° C., 176° C. and 180° C., respectively.
On the technique in general: In DSC, transitions show as peaks or steps in heat flow.

One may read the IC50 as the concentration that gives 50% inhibition. A lower IC50 goes with greater potency in that assay. Consider `Cc1nc(-c2c[nH]c3c(C#N)cccc23)cnc1OCC(C)(C)O` [3-(5-(2-hydroxy-2-methylpropoxy)-6-methylpyrazin-2-yl)-1H-indole-7-carbonitrile], for which the “XRPD after competitive equilibration” value in data set [1] (25° C. for 3 days) was “Form P”; in [1] (50° C. for 3 days), “Form P”; in data set [1] (70° C. for 1 week), “Form P”; in [1] (70° C. for 3 days), “Form P + one peak”. In [2], this molecule showed an IC50 of 50 nM.
In the case of `Cc1nc(-c2c[nH]c3c(C#N)cccc23)cnc1OCC(C)(C)O` [Amorphous form, 3-(5-(2-hydroxy-2-methylpropoxy)-6-methylpyrazin-2-yl)-1H-indole-7-carbonitrile], the “Form after humidity exposure” value in data set [3] (exposure to high humidity) is given as “crystallized to Form N”. Also, the XRPD after equilibration entry is on record as “Form P” in [4] (2-MeTHF, 25° C.); “Form P” in [4] (2-MeTHF/heptane (v:v = 1:1), 25° C.); “Form P” in data set [4] (2-MeTHF/heptane (v:v = 3:1), 25° C.); “Form P” in data set [4] (2-Propanol, 25° C.); “Form P” in data set [4] (Acetone, 25° C.); “Form P” in data set [4] (Acetone/water (v:v = 30:70) a.w. = 0.92, 25° C.). Besides, the XRPD after equilibration result in [4] (Acetonitrile, 25° C.) is listed as “Form P”; in [4] (DMSO/water (v:v = 40:60) a.w. = 0.77, 25° C.) it was “Form P”; in data set [4] (Ethanol, 25° C.) it was “Form P”; in data set [4] (Ethanol/water (v:v = 40:60) a.w. = 0.91, 25° C.), “Form P”; in data set [4] (Ethyl acetate, 25° C.), “Form P”; in data set [4] (Isopropyl acetate, 25° C.), “Form P”. Besides, the XRPD after equilibration result is “Form P” in data set [4] (MEK, 25° C.); “Form P” in data set [4] (MTBE, 25° C.); “Form B” in data set [4] (Methanol, 25° C.); “Form I” in data set [4] (THF, 25° C.); “Form C” in data set [4] (Toluene, 25° C.); “Form C” in [4] (heptane, 25° C.). Moreover, the XRPD after equilibration result is “Form P” in [4] (pH 1.2 HCl/KCl buffer, 25° C.) and “Form P” in data set [4] (water, 25° C.).
For `Cc1nc(-c2c[nH]c3c(C#N)cccc23)cnc1OCC(C)(C)O` [Form C, 3-(5-(2-hydroxy-2-methylpropoxy)-6-methylpyrazin-2-yl)-1H-indole-7-carbonitrile], the “Comments (crystallinity)” value is listed as “Crystallinity decreased slightly” in data set [5], “Crystallinity decreased” in data set [7] (granulation solvent Ethanol) and “Crystallinity decreased slightly” in [7] (granulation solvent Water). The XRPD result in [5], in data set [7] (granulation solvent Ethanol) and in [7] (granulation solvent Water) was “Form C” in each case. The “Relative stability in water activity experiments” value in data set [6] is “stable”. Moreover, the “Time to conversion to Form P” value is on record as ≤ 2 h in data set [8] (2-MeTHF, 25° C.) and 31 h in data set [8] (pH 1.2 HCl buffer, 37° C.). In addition, the “Time to complete conversion to Form P” value in data set [8] (heptane, 25° C.) came out at 1 week; in [8] (water, 25° C.) it was 4 days.
For `Cc1nc(-c2c[nH]c3c(C#N)cccc23)cnc1OCC(C)(C)O` [Form K, 3-(5-(2-hydroxy-2-methylpropoxy)-6-methylpyrazin-2-yl)-1H-indole-7-carbonitrile], in data set [3] (25° C./92% RH for 6 days), the “Form after humidity exposure” value is recorded as “reverts back to Form B; also recorded: converts to hydrate Form B”. The “Form after melting and re-crystallization” value in [9] is given as “converts to Form L”.
In the case of `Cc1nc(-c2c[nH]c3c(C#N)cccc23)cnc1OCC(C)(C)O` [Form V, 3-(5-(2-hydroxy-2-methylpropoxy)-6-methylpyrazin-2-yl)-1H-indole-7-carbonitrile], the “Time to conversion to Form W” value in [3] (ambient condition (20° C.-27° C., 50% RH-70% RH)) is ≤ 12 h.
